Test results as given in ChEMBL document CHEMBL4017528, “Fragment-Based Discovery and Optimization of Enzyme Inhibitors by Docking of Commercial Chemical Space” (J Med Chem, 2017).

Tests used:
[1] = molecular target: Oxidized purine nucleoside triphosphate hydrolase (Homo sapiens, UniProt P36639); experiment: Inhibition of human recombinant His-tagged MTH1 expressed in Escherichia coli BL21 using dGTP as substrate after 15 mins by malachite green reagent-based assay
HeLa = experiment: Cytotoxicity against human HeLa cells after 72 hrs by WST-8 assay; format: functional, cell-based

SMILES | IC50 [1] [µM] | EC50 (HeLa) [µM]
CSc1nc2c(N)ncnc2[nH]1 | 24 | 
Nc1nc(SCCc2ccccc2)c2nc[nH]c2n1 | 0.17 | 
Cc1nc(N)nc2ccccc12 | 5.6 | 
Nc1nc(NCCc2ccccc2)c2nc[nH]c2n1 |  | 35
